These results are taken from patent publication US5780642A, “Imidazole derivatives as therapeutic agents” (KNOLL Aktiengesellschaft, priority 1993, dated 1998).

Where a name gives a salt, the structure may show the parent alone. Read-outs that look alike come from different tables or passages of the source.

Data set [1] relates to Zymosan Stimulated Macrophages (arachidonic acid release). Nature of the data set: Test A: Inhibition of Arachidonic Acid Release from Zymosan Stimulated Macrophages. In kind it is cell-based, mouse (female MF1 mice). The following applies: Mus musculus, Macrophage, read-out: Test A IC50. In short, it runs like this:
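Peritoneal macrophages from female MF1 mice, labelled overnight with [3H]-arachidonic acid (1.6 μCi/ml), then exposed to compound 24 h unstimulated and re-dosed with zymosan stimulus for 5 h at 37 °C. Released radioactivity counted by scintillation; spontaneous release subtracted; IC50 from six concentrations (1–100 μM), quadruplicate wells.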

For data set [2], the system named is Carrageenan-induced rat paw oedema. In words: Test B: Carrageenan-induced rat paw oedema test. It counts as in vivo. The following applies: 100 mg/kg oral; active = 20% or greater inhibition of paw oedema in at least two out of three tests. The method, then: Test B was carried out in the following way: Carrageenan-induced rat paw oedema test Female rats, weight range 125-150 g were fasted overnight. One of the hind legs of each animal was marked with a line at the connection between the cuboid/navicular and calcaneus/talus bones. Groups of six rats were orally dosed at 10 ml/kg, in random order, with a given dose of the test compound given as a solution or suspension in 10% (w/v) aqueous acacia solution. One hour after dosing, 0.1 ml of 1% (w/v) sterile carrageenan λ in normal saline was injected deeply into the plantar surface of the marked hind foot of each rat. The volume of the foot (up to the marked line) was measured immediately after injection using duplicate water displacement readings. Three hours after injection the foot volume was measured again and the percentage increase in foot volume relative to the initial reading was calculated. The increase in foot volume (i.e. the degree of oedema) in drug treated animals when compared with that in the drug untreated control gave the degree of inhibition of paw oedema by the drug. Compounds were considered to be active in this test if they produced a 20% or greater inhibition of paw oedema in at least two out of three tests after oral dosing at 100 mg/kg. Statistical significance was assessed using the Student's t test for single dose studies and Dunnett's test for multiple dose studies. More advantageous compounds were active in both Tests A and B.

The subject of data set [3] is lymphocyte proliferation (BALB/c responder and C57BL/6 stimulator spleen cells). Nature of the data set: Test C: Mixed Lymphocyte Reaction. In kind it is cell-based, mouse (BALB/c and C57BL/6). The following applies: Mus musculus, final concentration, read-out: IC50 (50% inhibition of the immune response). The method, then: A mixed lymphocyte reaction (MLR) occurs when lymphocytes from two genetically dissimilar individuals, or inbred strains of mice are cultured together. An MLR results in the activation and proliferation of lymphocytes, which is measured by the incorporation of radiolabelled thymidine into the cellular DNA synthesised during cell division. A `one-way` MLR is used to determine the immunosuppressive activity of test compounds in vitro. In this reaction one population of spleen cells serves as the stimulator cells and is treated with mitomycin C to prevent cell division. Spleen cells from a second allogeneic population (responder cells) are untreated and when mixed with the stimulator cells are able to undergo division which is measured. The degree of proliferation is measured in the presence and absence of test compound to assess the immunosuppressive activity of the compound. The techniques for carrying out lymphocyte proliferation assays including MLRs are well known, eg Bradley, pages 156-166, in Mishell and Shiigi, Eds. Selected Methods in Cellular Immunology (Freeman, San Francisco, 1980); and Battisto et al, methods in Enzymology 1987; 150: 83-91. Various slight modifications of these techniques are in use and that used herein is described in Gibb, Webber and Bowen, J Immunological Methods 1985; 81: 107-113. The immunomodulant activity of the preferred compounds was determined in a mixed lymphocyte reaction (Test C) in the following manner: Mixed Lymphocyte Reaction Cell suspensions obtained from the spleens of female BALB/c and C57BL/6 strain mice of between 6 and 9 weeks of age were used as sources of responder and stimulator cells respectively. The mice were killed using a rising concentration of CO2 and the spleens removed aseptically and teased using a scalpel and forceps to produce a single cell suspension in Hanks balanced salt solution (HBSS). The suspensions were filtered through cell strainers (Falcon), sedimented by centrifugation and resuspended in Tris-buffered ammonium chloride pH 7.2 (medium D) to lyse the erythrocytes. The cells were sedimented again and washed twice in HBSS before resuspending in complete RPMI 1640 tissue culture medium (medium E). The C57BL/6 cells were resuspended to 9 mls per spleen and a solution of mitomycin C at 400 μg/ml in medium E added to give a final concentration of 40 μg/ml. After incubation of the C57BL/6 cells at 37° C. for 30 minutes in an atmosphere of 5% CO2 and 95% air, the cells were sedimented and washed 3 times in medium E. Both cell suspensions were diluted in medium E to 5×10^6 cells/ml. 100 μl of each of the responder and stimulator cell suspensions were aliquoted into the wells of 96 well flat bottom microtitre plates containing 50 μl of test compound at an appropriate dilution (initially 50 μM diluted in medium E from a stock solution at 100 mM in dimethyl sulphoxide) giving a final test compound concentration of 10 μM (final dilution). […] After four days of culture at 37° C. in a humidified atmosphere of 5% CO2 and 95% air, 1 μCi of tritiated thymidine in 20 μl of medium E was added to each well and the plates incubated for a further 24 hours. […] The filters were transferred to vials to which 2 mls of Packard Emulsifier-Safe scintillation fluid was added and the radioactivity from the incorporated thymidine was counted in a Packard liquid scintillation counter. […] The data were analysed to determine the percentage inhibition of lymphocyte proliferation by the test compound. […]

The subject of data set [4] is Carrageenan-induced pleurisy (migrating leukocytes). In words: Carrageenan-induced pleurisy in rats. In kind it is in vivo. Particulars: rat, p.o. at time of challenge and 24h and 48h thereafter; 10 mg/kg. Here is the method:
The most advantageous compounds of formula I were active in Tests A and B and also in the following test. Carrageenan-induced pleurisy in rats was carried out as described by Ackerman et al. J. Pharmacol. Exp. Therap. 1980, 215, 588-595. Migrating leukocytes were harvested by lavage of the thoracic cavity 72h after injection of 0.3 ml 1% λcarrageenan in sterile isotonic saline. Test compounds were administered p.o. at the time of challenge and 24h and 48 h thereafter.

For data set [5], the system named is platelet aggregation. Particulars: cited from earlier work.
For data set [6] the following is noted: Indian Journal of Pharmacology 1973, 5, 428 / Pfl. Krankh. 1975, 3, 149; cited from earlier work.
For data set [7] the following is noted: cited from earlier work.
The mark [8] stands for this setting: inhibition of arachidonic acid release, zymosan stimulated mouse peritoneal macrophages, tested at 100, 50, 20, 10, 5 and 1 μM, ≤100 μM considered active.

Broadly, the IC50 is the concentration needed to halve the response being measured. For `Cc1nccn1CCCNCCOc1ccc(Cl)cc1` [Example 8, N-[2-(4-Chlorophenoxy)ethyl]-3-(2-methylimidazol-1-yl)propylamine], the IC50 stood at 14 µM in data set [1] (setting [8]) and 2.4 µM in data set [3]. In addition, in data set [2], the “activity in Test B (inhibition of paw oedema)” value was “active”.

As to `Clc1ccc(OCCNCCCCCn2ccnc2)cc1` [Example 16, N-[2-(4-chlorophenoxy)ethyl]-5-(imidazol-1-yl)pentylamine dihydrochloride hemihydrate], the IC50 was determined as 7 µM in data set [1] (setting [8]) and 2.8 µM in data set [3]. Besides, in data set [4], the “activity in carrageenan-induced pleurisy at 10 mg/kg” value is recorded as “active”.

In the case of `CC(CCn1ccnc1)NCc1ccccc1` (stereo not shown) [Compound A], the “inhibitory effect on platelet aggregation in vitro” value in data set [5] was “inhibitory effect on platelet aggregation in vitro”.

`CC(C)(COc1ccc(Cl)cc1)NCCCn1ccnc1.Cl.Cl` [Example 17, N-[2-(4-chlorophenoxy)-1,1-dimethylethyl]-3-(imidazol-1-yl)propylamine dihydrochloride]: the IC50 was found to be 12 µM in data set [1] (setting [8]) and 5.9 µM in data set [3]. In data set [4], the “activity in carrageenan-induced pleurisy at 10 mg/kg” value is reported as “active”.

`CC(C)(CSc1ccc(Cl)cc1)NCCCn1ccnc1` [Example 19, N-[2-(4-Chlorophenylthio)-1,1-dimethylethyl]-3-(imidazol-1-yl)propylamine dihydrochloride]: the IC50 stood at 8 µM in data set [1] and 1.7 µM in data set [3].

Take `CC(C)(NCCCc1ncc[nH]1)c1ccccc1` [Example 87, 3-(imidazol-2-yl)-N-(1-methyl-1-phenylethyl)propylamine]: the IC50 in data set [1] (setting [8]) amounted to 25 µM; in data set [3], 5.8 µM.

As to `CCC(NCC(C)N1CCOCC1)c1ccc(Cl)c(Cl)c1` (stereo not drawn) [N-[2-(4-Morpholino)propyl]-α-ethyl-3,4-dichlorobenzylamine], the “antiinflammatory activity (alleged)” value in data set [6] is recorded as “alleged to have antiinflammatory activity”. For the same compound, the “undesirable side-effects in mice” value in data set [7] is “wide range of undesirable side-effects in mice”.
